Measurements taken from patent publication US20260335282A1, “NOVEL 3-ARYLIDENE-2-INDOLINONE DERIVATIVES FOR THERAPEUTIC USE” (ISTANBUL UNIVERSITESI REKTORLUGU, priority 2022, published 2026).
pIC50: −log10 of the molar value.

Columns and labels:
primary tumor = settings: combination with docetaxel, Patyna et al. 2006; cited from earlier work
FGFR1 = settings: Liang et al. 2012; cited from earlier work
MCF-7 cells = assay: MTT cytotoxicity, breast cancer cells MCF-7; assay type: cell-based, human; settings: MTT, no * mark (incubation time not specified)
How it was run: (§1)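 Viability was quantified by MTT reduction following 48 and/or 72 h compound exposure at four concentrations (0.1, 1, 5, 10 μM). Values are percentages of DMSO-treated controls, with IC50 fitted from dose-response data.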

HUVEC cells = assay: MTT cytotoxicity, healthy cells HUVEC; assay type: cell-based, human
How it was run: as §1

HT-29 cells = assay: MTT cytotoxicity, colon cancer cells HT-29; assay type: cell-based, human; settings: MTT, no * mark (incubation time not specified)
How it was run: (§2)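 Cells were seeded at 5000 per well and treated next day with compound at 0.1, 1, 5 and 10 μM (final) for 48 and/or 72 h, with matched DMSO controls. MTT was added for 4 h and formazan was dissolved in DMSO and read at 570/630 nm. % viability against control gave IC50 from dose-response curves.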

A549 cells = assay: MTT cytotoxicity, lung cancer cells A549; assay type: cell-based, human; settings: no * mark (incubation time not specified)
How it was run: as §1

MCF-10F/Beas2b cells = assay: MTT cytotoxicity, healthy cells MCF-10F/Beas2b; assay type: cell-based, human
How it was run: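 Cells exposed to compounds at 0.1, 1, 5 and 10 μM (DMSO vehicle-matched controls) for 48 and/or 72 h, then MTT 4 h; formazan in DMSO read at 570/630 nm. Viability as % of control; IC50 from dose-response curves. Healthy cells tested at 10-fold the cancer-cell IC50 concentration.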

A498 cells = assay: MTT cytotoxicity, kidney cancer cells A498; assay type: cell-based, human; settings: MTT, *: effective 72 hours after incubation
How it was run: as §1

HCT-116 cells = assay: MTT cytotoxicity, colon cancer cells HCT-116; assay type: cell-based, human; settings: no * mark (incubation time not specified)
How it was run: as §2

CAKI-1 cells = assay: MTT cytotoxicity, kidney cancer cells CAKI-1; assay type: cell-based, human; settings: *: effective 72 hours after incubation
How it was run: as §1

[1] = tested on: general tyrosine kinase activity in HCT116 colon cancer cells; assay: General tyrosine kinase activity (ELISA) in HCT-116 cells; assay type: cell-based, human; settings: 72 hours, IC50 concentration
Protocol: Takara Universal Tyrosine Kinase Assay Kit is used to determine the effects of 11 2-indolinone compounds (Y1, Y2, Y3, Y4, Y5, Y8, […], […], Y21, Y23, 20C, 22C) on general tyrosine kinase activity in cancer cells. Cells are seeded in 6-well plates (4.10^5 cells/well) and the IC50 concentration of each selected molecule is performed to the cells for 48 or 72 hours. Cells in the control group are incubated with medium only. At the end of the incubation period, the cells in each well are washed with PBS and cells are removed from the wells using a cell scraper via 1 ml of the extraction buffer in the kit. The cell lysate is transferred to ependorf tubes and centrifuged at 10.000 g for 10 minutes at +4° C. and the supernatant is used as a sample for activity determination. […] The reaction is finished by adding 100 μl of stop solution to each well and the optical density in each well is measured at 405 nm with a microplate reader (BioTek, USA). The tyrosine kinase activity in each sample is calculated from the standard curve obtained from the absorbance values of the standard solutions with the kit (Chan W Y, Lau P M, Yeung K W, Kong S K. The second generation tyrosine kinase inhibitor dasatinib induced eryptosis in human erythrocytes—An in vitro study. Toxicol Lett. 2018; 295:10-21). […]

MIAPaCa-2 cells = assay: MTT cytotoxicity, pancreas cancer cells MIAPaCa-2; assay type: cell-based, human; settings: MTT, no * mark (incubation time not specified)
How it was run: as §2

MDA-MB-231 cells = assay: MTT cytotoxicity, breast cancer cells MDA-MB-231; assay type: cell-based, human; settings: read-out: IC50, MDA-MB-231 (breast); MTT, no * mark (incubation time not given)
How it was run: as §1

For Cc1[nH]c(/C=C2\C(=O)Nc3ccc(F)cc32)c(C)c1C(=O)NCC(O)CN1CCOCC1 (stereo not drawn) [SU14813], the “inhibition of primary tumor growth and survival” value (primary tumor) is listed as “significantly improve both inhibition of primary tumor growth and survival of tumor-bearing mice”.
In the case of Cc1c[nH]c(/C=C2\C(=O)Nc3ccccc32)c1CCC(=O)O [SU5402, 3-[4-methyl-2-[(Z)-(2-oxo-1H-indol-3-ylidene)methyl]-1H-pyrrol-3-yl]propanoic acid], the “inhibitory activity against FGFR1 vs SU4984” value (FGFR1) is listed as “better inhibitory activity against FGFR1 than SU4984”.
With Cc1cccc(CN2C(=O)/C(=C\c3c[nH]c4ccccc34)c3cc(Cl)ccc32)c1 [20C] the pIC50 (MCF-7 cells) was < 5.00, the “Selectivite Index, HUVEC (Table 2)” value (HUVEC cells; HUVEC vs colon or pancreas cancer cells, cancer line not given) was 5.63 and the pIC50 (HUVEC cells; MTT, no * mark (incubation time not specified)) was 5.82. The pIC50 (HT-29 cells) was 5.94, the pIC50 (A549 cells) was 5.39 and the “Selectivite Index, MCF-10F/Beas2b (Table 2)” value (MCF-10F/Beas2b cells; MCF-10F/Beas2b vs colon or pancreas cancer cells, cancer line not given) was 13.63. For the same compound, the pIC50 (MCF-10F/Beas2b cells; MTT, *: effective 72 hours after incubation) was 5.43, the pIC50 (A498 cells) was 6.01 and the pIC50 (HCT-116 cells) was 6.57. For the same compound, the pIC50 (CAKI-1 cells) was 5.21, the “tyrosine kinase activity compared to control” value [1] was “did not cause a significant change” and the pIC50 (MIAPaCa-2 cells) was 5.86. For the same compound, the pIC50 (MDA-MB-231 cells) was < 5.00.
